According to patent publication US20230065562A1, “DUAL CONTROLS FOR THERAPEUTIC CELL ACTIVATION OR ELIMINATION” (Bellicum Pharmaceuticals, Inc., priority 2015, published 2023):

How the values were obtained:
293T cells = assay: SeAP reporter assay: iC9 without FRB-Caspase-9 (controls); type: cell-based; details: iC9 with control vector or FRB without caspase fusion
Description: (FIGS. 39 and 40). iC9 (FKBPv12-Caspase-9) was cotransfected with a control vector expressing only an epitope tag (FIG. 39) or a vector containing FRB without caspase fusion, but instead with a short, irrelevant tag (FIG. 40).
FIG. 39—FRB-Caspase-9 is required for a rapamycin-induced cell death switch. 293T cells were transfected with SRα-SeAP (pBP0046), pS-NLS-E and pSH1-FKBPv12-Caspase9 (pBP0044).
FIG. 40—Caspase-9 fusion with FRB is required for a rapamycin-induced cell death switch. 293T cells were transfected with SRα-SeAP (pBP0046), pSH1-FRBL-VP16 (pBP0731) (4) and pSH1-FKBPv12-Caspase9 (pBP0044). […] Loss of reporter activity is a proxy for the loss of cell viability. Reporter activity is expressed as a percentage of the average of 8 wells containing no drug. Drug-containing wells were assayed in triplicate wells.

T cells expressing iC9 = assay: T cell killing assay with caspase 3/7 green reagent monitored by IncuCyte, iC9; type: cell-based, human; details: increasing doses, PBMCs from 3 donors, FIG. 108B
Description: To determine the functionality of these switches in activated T cells, retroviral supernatants were produced and transduced into PBMCs activated from 3 separate donors.

[1] = tested on: transduced T cells (human PBMCs); assay: IL-6 ELISA as indicator of MC activity in transduced T cells; type: cell-based
iC9 (pBP220) = iC9 (pBP220) (Homo sapiens, UniProt P62942, F37V); assay: SRα-SEAP assay of drug specificity, iC9 switch, 293 cells; details: SRα-SEAP reporter, FIG. 108A
non-transduced cells = assay: AP20187 on non-transduced cells (annexin V/7-AAD viability); type: cell-based, human
Protocol: Suicide gene functionality was assessed by adding a small molecule synthetic homodimerizer, AP20187 (Ariad Pharmaceuticals; Cambridge, Mass.), at 10 nM final concentration the day following CD19 immunomagnetic selection. Cells were stained with annexin V and 7-amino-actinomycin (7-AAD)(BD Pharmingen) at 24 hours and analyzed by flow cytometry. Cells negative for both annexin V and 7-AAD were considered viable, cells that were annexin V positive were apoptotic, and cells that were both annexin V and 7-AAD positive were necrotic. The percentage killing induced by dimerization was corrected for baseline viability as follows: Percentage killing=100%−(% Viability in AP20187-treated cells÷% Viability in nontreated cells).
The day following immunomagnetic selection, 10 nM of the chemical inducer of dimerization, AP20187, was added to induce apoptosis, which appeared within 24 hours. […] Killing efficiency after correction for baseline viability was about 92.9%±3.8%. Large-scale CD19 selection produced cells that were killed with similar efficiency as small-scale selection: mean viability with and without AP20187, and percentage killing, in large and small scale were about 3.9%, about 84.0%, about 95.4% (n=3) and about 6.6%, about 79.3%, about 91.4% (n=5) respectively. […]

[2] = tested on: iCasp9M.IRES.GFPhigh-transduced CTLs in LCL xenograft; assay: SCID mouse-human xenograft model, elimination of iCasp9M-transduced CTLs; type: in vivo, NOD/SCID mice; details: single dose of CID (50 μg AP20187 i.p.), 3 days after
Protocol: Non-obese diabetic severe combined immunodeficient (NOD/SCID) mice, 6 to 8 weeks of age, were irradiated (250 rad) and injected subcutaneously in the right flank with 10×10^6 to 15×10^6 LCLs resuspended in Matrigel (BD Bioscience). Two weeks later mice bearing tumors that were approximately 0.5 cm in diameter were injected into the tail vein with a 1:1 mixture of nontransduced and iCasp9.I.GFPhigh-transduced EBV CTLs (total 15×10^6). At 4 to 6 hours prior and 3 days after CTL infusion, mice were injected intraperitoneally with recombinant hIL-2 (2000 U; Proleukin; Chiron). […] By FACS analysis, the number of GFP^+ cells within the gated CD3^+ population was evaluated. […]
The function of iCasp9M also was evaluated in transduced EBV-CTLs in vivo. […] Three days after CID/carrier administration, tumors were analyzed for human CD3^+/GFP^+ cells. […]
The function of iCasp9M in vivo, was assayed. […] On day 3 after CTL administration, mice received either CID (50 µg AP20187; (black diamonds, n=6) or carrier only (black squares, n=5) and on day 6 the presence of human CD3^+/GFP^+ T cells in the tumors was analyzed. Human CD3^+ T cells isolated from the tumors of a control group of mice that received only nontransduced CTLs (15×10^6 CTLs; n=4) were used as a negative control for the analysis of CD3^+/GFP^+ T cells within the tumors.

Chain of iC9 (pBP220) (P62942 2-108 F37V): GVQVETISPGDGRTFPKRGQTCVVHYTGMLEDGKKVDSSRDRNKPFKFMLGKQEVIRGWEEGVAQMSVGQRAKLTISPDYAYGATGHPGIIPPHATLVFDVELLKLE
Chain of iC9 (pBP220) (P55211 135-416 partner limits assumed): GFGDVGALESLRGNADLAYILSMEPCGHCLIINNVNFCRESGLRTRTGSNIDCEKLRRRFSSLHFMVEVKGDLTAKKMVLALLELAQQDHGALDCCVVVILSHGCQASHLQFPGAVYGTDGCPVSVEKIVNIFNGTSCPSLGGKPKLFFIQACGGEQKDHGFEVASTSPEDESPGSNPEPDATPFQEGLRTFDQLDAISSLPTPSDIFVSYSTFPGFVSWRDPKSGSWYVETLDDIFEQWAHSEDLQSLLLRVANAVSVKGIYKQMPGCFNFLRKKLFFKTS

Structure (SMILES)	cell death (loss of SeAP reporter) without FRB-Caspase-9 (293T cells)	activation of iC9 in T cells (caspase 3/7) (T cells expressing iC9)	MC activity (secreted IL-6) in iMC+CARζ-T cells ([1]; 24 hours)	MC activity (secreted IL-6) in MC-rap-T cells ([1]; pBP1440, 24 hours)	activation of the iC9 switch (iC9 (pBP220))	toxicity to non-transduced cells (non-transduced cells)	viability with AP20187 (non-transduced cells; non-transduced cells (n=6))	reduction in the number of human CD3+/GFP+ T cells versus carrier ([2]; listed as CID)	reduction in the number of human CD3+/GFP+ T cells versus carrier ([2]; listed as dimerizer)
CC[C@H](C(=O)N1CCCC[C@H]1C(=O)O[C@H](CCc1ccc(OC)c(OC)c1)c1cccc(OCC(=O)NCCNC(=O)COc2cccc([C@@H](CCc3ccc(OC)c(OC)c3)OC(=O)[C@@H]3CCCCN3C(=O)[C@@H](CC)c3cc(OC)c(OC)c(OC)c3)c2)c1)c1cc(OC)c(OC)c(OC)c1 [rimiducid]	effectively permitted homodimerization and induction of Caspase-9	can activate	stimulated strongly	not stimulated	can activate				
CC[C@H](C(=O)N1CCCC[C@H]1C(=O)O[C@H](CCc1ccc(OC)c(OC)c1)c1cccc(OCC(=O)NCC(CNC(=O)COc2cccc([C@@H](CCc3ccc(OC)c(OC)c3)OC(=O)[C@@H]3CCCCN3C(=O)[C@@H](CC)c3cc(OC)c(OC)c(OC)c3)c2)CN(C)C)c1)c1cc(OC)c(OC)c(OC)c1 [AP20187]						non-toxic	about 86%±9	> 99%	more than 99%
